The results in this text go back to patent US20220289766A1 (INFLAZOME LIMITED, priority 2019, published 2022).

The target in assay [1] is T1, NLRP3 (Homo sapiens, UniProt Q96P20). The assay can be described thus: THP-1 cells pyroptosis assay. The format is cell-based. On the set-up: Seed THP-1 cells (25,000 cells/well) containing 1.0 μg/ml LPS in 40 μl of RPMI medium; host or cells: THP-1 cells. The settings on record: LPS 1 μg/ml, compound 3 hrs, nigericin 5 μM 1 hr, resazurin readout. On the procedure:
THP-1 cells (ATCC #TIB-202) were grown in RPMI containing L-glutamine (Gibco #11835) supplemented with 1 mM sodium pyruvate (Sigma #S8636) and penicillin (100 units/ml)/streptomycin (0.1 mg/ml) (Sigma #P4333) in 10% Fetal Bovine Serum (FBS) (Sigma #F0804). The cells were routinely passaged and grown to confluency (˜10^6 cells/ml). On the day of the experiment, THP-1 cells were harvested and resuspended into RPMI medium (without FBS). The cells were then counted and viability ([…]) checked by Trypan blue (Sigma #T8154). Appropriate dilutions were made to give a concentration of 625,000 cells/ml. To this diluted cell solution was added LPS (Sigma #L4524) to give a 1 μg/ml Final Assay Concentration (FAC). 40 μl of the final preparation was aliquoted into each well of a 96-well plate. The plate thus prepared was used for compound screening.
The following method step-by-step assay was followed for compound screening. • 1. Seed THP-1 cells (25,000 cells/well) containing 1.0 μg/ml LPS in 40 μl of RPMI medium (without FBS) in 96-well, black walled, clear bottom cell culture plates coated with poly-D-lysine (VWR #734-0317) • 2. Add 5 μl compound (8 points half-log dilution, with 10 μM top dose) or vehicle (DMSO 0.1% FAC) to the appropriate wells • 3. Incubate for 3 hrs at 37° C., 5% CO2 • 4. Add 5 μl nigericin (Sigma #N7143) (FAC 5 μM) to all wells • 5. Incubate for 1 hr at 37° C., 5% CO2 • 6. At the end of the incubation period, spin plates at 300×g for 3 mins and remove supernatant • 7. Then add 50 μl of resazurin (Sigma #R7017) (FAC 100 μM resazurin in RPMI medium without FBS) and incubate plates for a further 1-2 hrs at 37° C. and 5% CO2 • 8. Plates were read in an Envision reader at Ex 560 nm and Em 590 nm • 9. IC50 data is fitted to a non-linear regression equation (log inhibitor vs response-variable slope 4-parameters)
On the technique in general: Alamar Blue is a resazurin reagent that responds to reducing activity.

The target of assay [2] is T1, NLRP3. The assay can be described thus: Human whole blood IL-1β release assay. The settings on record: LPS 1 μg/ml, compound 3 hrs, nigericin 10 μM 1 hr, IL-1β by AlphaLisa, read-out: HWB IC50. Format: cell-based. Set-up: Plate out 80 μl of whole blood containing 1 μg/ml of LPS in 96-well, clear bottom cell culture plate; from tissue; host or cells: human whole blood from healthy donors. Here is the method:
For systemic delivery, the ability to inhibit NLRP3 when the compounds are present within the bloodstream is of great importance. For this reason, the NLRP3 inhibitory activity of a number of compounds in human whole blood was investigated in accordance with the following protocol.
Human whole blood in Li-heparin tubes was obtained from healthy donors from a volunteer donor panel. • 1. Plate out 80 μl of whole blood containing 1 μg/ml of LPS in 96-well, clear bottom cell culture plate (Corning #3585) • 2. Add 10 μl compound (8 points half-log dilution with 10 μM top dose) or vehicle (DMSO 0.1% FAC) to the appropriate wells • 3. Incubate for 3 hrs at 37° C., 5% CO2 • 4. Add 10 μl nigericin (Sigma #N7143) (10 μM FAC) to all wells • 5. Incubate for 1 hr at 37° C., 5% CO2 • 6. At the end of the incubation period, spin plates at 300×g for 5 mins to pellet cells and remove […] of supernatant and add to 96-well v-bottom plates for IL-1β analysis (note: these plates containing the supernatants can be stored at −80° C. to be analysed at a later date) • 7. IL-1β was measured according to the manufacturer protocol (Perkin Elmer-AlphaLisa IL-1 Kit AL220F-5000) • 8. IC50 data is fitted to a non-linear regression equation (log inhibitor vs response-variable slope 4-parameters)
Background: Alpha assays give light when donor and acceptor beads are brought close together.

Counter-ions that a name gives are not always drawn.

T1 sequence (Q96P20 whole entry): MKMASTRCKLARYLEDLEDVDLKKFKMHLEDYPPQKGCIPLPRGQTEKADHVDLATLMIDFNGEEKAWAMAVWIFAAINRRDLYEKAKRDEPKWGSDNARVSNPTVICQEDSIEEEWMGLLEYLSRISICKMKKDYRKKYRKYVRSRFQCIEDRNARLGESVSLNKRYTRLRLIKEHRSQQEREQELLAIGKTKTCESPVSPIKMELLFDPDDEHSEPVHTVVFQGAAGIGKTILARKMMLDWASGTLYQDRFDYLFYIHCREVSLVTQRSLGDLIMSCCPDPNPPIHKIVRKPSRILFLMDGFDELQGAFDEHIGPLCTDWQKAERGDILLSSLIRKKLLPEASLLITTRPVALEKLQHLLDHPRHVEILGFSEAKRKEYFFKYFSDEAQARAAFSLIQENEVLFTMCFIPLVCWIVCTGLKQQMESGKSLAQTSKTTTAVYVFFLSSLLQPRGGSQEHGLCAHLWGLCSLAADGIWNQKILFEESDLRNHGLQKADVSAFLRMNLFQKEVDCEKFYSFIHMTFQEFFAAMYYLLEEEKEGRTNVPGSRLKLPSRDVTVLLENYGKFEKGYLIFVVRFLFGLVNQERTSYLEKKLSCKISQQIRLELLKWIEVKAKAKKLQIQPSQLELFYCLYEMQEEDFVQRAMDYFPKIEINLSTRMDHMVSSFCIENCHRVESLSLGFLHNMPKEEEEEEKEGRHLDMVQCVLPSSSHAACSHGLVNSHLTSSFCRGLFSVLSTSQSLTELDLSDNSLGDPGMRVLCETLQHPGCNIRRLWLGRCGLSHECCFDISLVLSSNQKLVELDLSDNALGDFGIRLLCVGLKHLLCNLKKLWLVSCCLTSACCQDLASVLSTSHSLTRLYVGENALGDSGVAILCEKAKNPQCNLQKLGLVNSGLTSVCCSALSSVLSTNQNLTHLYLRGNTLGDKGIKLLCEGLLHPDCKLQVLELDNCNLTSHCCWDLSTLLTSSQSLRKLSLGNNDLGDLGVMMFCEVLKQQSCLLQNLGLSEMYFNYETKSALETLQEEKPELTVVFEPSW

The IC50 is the point on the concentration scale where inhibition reaches its midpoint. In the case of `Cc1c2ccnc1OCC(C)(C)n1ccc(n1)S(=O)(=O)NC(=O)Nc1c-2ccc2c1CCC2` [Example 45, 19,19,26-trimethyl-21-oxa-14λ^6-thia-11,13,18,23,27-pentaaza-pentacyclo[20.3.1.1^15,18.0^2,10.0^5,9]-heptacosa-1(25),2,4,9,15(27),16,22(26),23-octaene-12,14,14-trione, sodium salt], the IC50 in assay [1] and in assay [2] was 1000 to 5000 nM throughout.
As to `CC1(C)COc2cc(ccn2)-c2ccc3c(c2NC(=O)NS(=O)(=O)c2nn1cc2F)CCC3` [Example 27, 16-fluoro-19,19-dimethyl-21-oxa-14λ^6-thia-11,13,18,23,27-pentaaza-pentacyclo[20.3.1.1^15,18.0^2,10.0^5,9]-heptacosa-1(25),2,4,9,15(27),16,22(26),23-octaene-12,14,14-trione, sodium salt], the figures for the IC50 in assay [1] and in assay [2] were at most 100 nM and 100 to 500 nM, respectively.
The like results for `Cc1cc2cc(n1)OCC(C)(C)n1ccc(n1)S(=O)(=O)NC(=O)Nc1c-2ccc2c1CCC2` [Example 36, 19,19,24-trimethyl-21-oxa-14λ^6-thia-11,13,18,23,27-pentaazapentacyclo-[20.3.1.1^15,18.0^2,10.0^5,9]heptacosa-1(26),2,4,9,15(27),16,22,24-octaene-12,14,14-trione] were, in that order, at most 100 nM and 500 to 1000 nM.
Taken in the same sequence, the figures for `O=C1Nc2c3c(cc4c2C(CCCCCCn2ccc(n2)S(=O)(=O)N1)CC4)CCC3` (racemic) [Example 48, 5λ^6-thia-2,4,9,27-tetraazapentacyclo[14.9.1.1^6,9.0^19,26.0^21,25]heptacosa-1(25),6(27),7,19(26),20-pentaene-3,5,5-trione] were 1000 to 5000 nM and 5000 to 10000 nM.
As to `O=C1Nc2c(ccc3c2CCC3)-c2ccnc(c2)OCCCCCn2cc(cn2)S(=O)(=O)N1` [Example 6, 24-oxa-14λ^6-thia-11,13,17,18,26-pentaazapentacyclo-[23.3.1.1^15,18.0^2,10.0^5,9]triaconta-1(28),2,4,9,15(30),16,25(29),26-octaene-12,14,14-trione], the IC50 in assay [1] was 100 to 500 nM; in assay [2] it was 1000 to 5000 nM.
Turning to `CC1(C)COc2cc(ccn2)-c2c(F)cc3c(c2NC(=O)NS(=O)(=O)c2ccn1n2)CCC3` [Example 34, 3-fluoro-19,19-dimethyl-21-oxa-14λ^6-thia-11,13,18,23,27-pentaazapentacyclo-[20.3.1.1^15,18.0^2,10.0^5,9]heptacosa-1(25),2,4,9,15(27),16,22(26),23-octaene-12,14,14-trione], the IC50 is at most 100 nM in assay [1] and 100 to 500 nM in assay [2].
In the case of `Cc1cc2c(c3c1-c1ccnc(c1)OCCCCCn1ccc(n1)S(=O)(=O)NC(=O)N3)CCC2` [Example 2, 3-methyl-24-oxa-14λ^6-thia-11,13,18,26,30-pentaaza-pentacyclo[23.3.1.1^15,18.0^2,10.0^5,9]-triaconta-1(29),2(10),3,5(9),15(30), 16,25,27-octaene-12,14,14-trione], the 50% inhibitory concentration (IC50) in assay [1] was at most 100 nM; in assay [2], 500 to 1000 nM.
Consider `CC(C)c1cc(F)cc2c1NC(=O)NS(=O)(=O)c1nn(cc1F)CCOc1cc-2ccn1` [Example 44, 4,13-difluoro-6-(propan-2-yl)-18-oxa-11λ^6-thia-8,10,15,20,24-pentaazatetracyclo[17.3.1.1^12,15.0^2,7]-tetracosa-1(22),2(7),3,5,12(24),13,19(23),20-octaene-9,11,11-trione, sodium salt], for which the values for the IC50 in assay [1] and in assay [2] were at most 100 nM and 100 to 500 nM, respectively.
Take `O=C1Nc2c(ccc3c2CCC3)-c2ccnc(c2)OCCCCCn2ccc(n2)S(=O)(=O)N1` [Example 1, 24-Oxa-14λ^6-thia-11,13,18,26,30-pentaazapentacyclo-[23.3.1.1^15,18.0^2,10.0^5,9]-triaconta-1(29),2(10),3,5(9),15(30),16,25,27-octaene-12,14,14-trione]: the half-maximal inhibitory concentration (IC50) fell in the range of 100 to 500 nM in assay [1] and 1000 to 5000 nM in assay [2].
Regarding `CN1CCOc2cc(ccn2)-c2ccc3c(c2NC(=O)NS(=O)(=O)c2ccn(n2)C(C)(C)C1=O)CCC3` [Example 13, 19,19,21-trimethyl-24-oxa-14λ^6-thia-11,13,18,21,26,30-hexaazapentacyclo-[23.3.1.1^15,18.0^2,10.0^5,9]triaconta-1(28),2,4,9,15(30),16,25(29),26-octaene-12,14,14,2o-tetrone], the IC50 fell in the range of 100 to 500 nM in assay [1] and 500 to 1000 nM in assay [2].
Consider `CC1(C)COc2cc(ccn2)-c2ccc3c(c2NC(=O)NS(=O)(=O)c2ccn1n2)CCC3` [Example 11, 19,19-dimethyl-21-oxa-14λ^6-thia-11,13,18,23,27-pentaaza-pentacyclo[20.3.1.1^15,18.0^2,10.0^5,9]-heptacosa-1(25),2,4,9,15(27),16,22(26),23-octaene-12,14,14-trione], for which the IC50 in assay [1] and in assay [2] was 100 to 500 nM each time.
Take `Cc1cc2c(c3c1-c1ccnc(c1)OCCn1ccc(n1)S(=O)(=O)NC(=O)N3)CCC2` [Example 28, 3-methyl-21-oxa-14λ^6-thia-11,13,18,23,27-pentaazapentacyclo-[20.3.1.1^15,18.0^2,10.0^5,9]heptacosa-1(25),2(10),3,5(9),15(27),16,22(26),23-octaene-12,14,14-trione, sodium salt]: the IC50 in assay [1] was at most 100 nM; in assay [2], 100 to 500 nM.
Consider `O=C1Nc2c(ccc3c2CCC3)-c2cc(F)nc(c2)OCCn2cc(F)c(n2)S(=O)(=O)N1` [Example 42, 16,24-difluoro-21-oxa-14λ^6-thia-11,13,18,23,27-pentaazapentacyclo-[20.3.1.1^15,18.0^2,10.0^5,9]heptacosa-1(26),2,4,9,15(27),16,22,24-octaene-12,14,14-trione], for which the half-inhibitory concentration (IC50) is at most 100 nM in assay [1] and 100 to 500 nM in assay [2].
In the case of `CC(C)c1cc(F)cc2c1NC(=O)NS(=O)(=O)c1nn(cc1F)C(C)(C)COc1cc-2ccn1` [Example 30, 4,13-difluoro-16,16-dimethyl-6-(propan-2-yl)-18-oxa-11λ^6-thia-8,10,15,20,24-pentaazatetracyclo-[17.3.1.1^12,15.0^2,7]tetracosa-1(22),2(7),3,5,12(24),13,19 (23),20-octaene-9,11,11-trione, sodium salt], the IC50 is at most 100 nM in assay [1] and 100 to 500 nM in assay [2].
Turning to `CN1CCOc2cc(ccn2)-c2ccc3c(c2NC(=O)NS(=O)(=O)c2ccn(n2)CC1)CCC3` [Example 8, 21-methyl-24-oxa-14λ^6-thia-11,13,18,21,26,30-hexaazapentacyclo-[23.3.1.1^15,18.0^2,10.0^5,9]triaconta-1(28),2,4,9,15(30),16,25(29),26-octaene-12,14,14-trione], the IC50 in assay [1] and in assay [2] was 500 to 1000 nM throughout.
On to `CC1(C)COCCOc2cc(ccn2)-c2ccc3c(c2NC(=O)NS(=O)(=O)c2ccn1n2)CCC3` [Example 12, 19,19-dimethyl-21,24-dioxa-14λ^6-thia-11,13,18,26,30-pentaazapentacyclo-[23.3.1.1^15,18.0^2,10.0^5,9]triaconta-1(28),2,4,9,15(30),16,25(29),26-octaene-12,14,14-trione], for which the IC50 in assay [1] is 100 to 500 nM; in assay [2], 500 to 1000 nM.
